The values that follow come from patent US20190106697A1, “Inhibition Of Lactate Transporters For Use In The Treatment Of Inflammatory Diseases” (Queen Mary University of London, priority 2014, published 2019).

What all share (format): cell-based, mouse
In assay [1] the test system is activated CD8+ T-cells. As to the kind of experiment: Glucose uptake and flux with 2-NBDG / 6-NBDG in CD8+ T-cells. Conditions: 2-NBDG and 6-NBDG probes. How it is done:
Measurement of lactate, glycolysis, glucose uptake/flux and cell death: Lactate concentration was measured in the synovial fluid or peritoneal lavage using the Lactate assay Kit (Biovision), according to the manufacturer's instructions. Glycolytic metabolism was measured with a Seahorse XF24 Extracellular Flux Analyzer. Briefly, T-cells were grown in high glucose RPMI-1640 supplemented with 10% FCS. […] T-cell viability upon lactate or metabolic drug treatment was assessed by trypan blue exclusion assay.

The subject of assay [2] is activated CD8+ T-cells. As to the kind of experiment: In vitro chemokinesis of activated CD8+ T-cells towards CXCL10 (transwell). From the text: (§1) T-cell isolation, in-vitro activation and subset enrichment: T-cells were isolated from C57BL/6 murine lymph nodes and activated for 3 to 5 days with plate bound anti-CD3 and anti-CD28 antibodies (BioLegend), and IL-2 (PeproTech). CD4+ and CD8+ subsets were enriched with commercially available CD4+ and CD8+ T-cell isolation kits according to the manufacturer's instructions (Easysep, Invitrogen) either prior or post activation according to experimental settings. Chemokinesis assays: Chemokinesis assays were performed in 5 μm transwell inlays. In some experiments, T-cells were pre-treated overnight with a number of drugs purchased from Calbiochem: Rapamycin (200 nM), 2-DG (1 mM), Metformin (2 mM). […] 3×10^6 lymphocytes were seeded in the upper transwell chamber; chemokines were added to the lower chamber: CXCL10 (300 ng/ml), CCL5 (50 ng/ml), CCL19/21 (200 ng/ml of each chemokine). Migrated T-cells were counted with a hemocytometer 2, 4 and 6 hours after seeding and % of migrated cells was calculated.

Assay [3] relates to activated CD4+ T-cells. As to the kind of experiment: In vitro chemokinesis of activated CD4+ T-cells towards CXCL10 (transwell). The note with it: 10 mM lactic acid or sodium lactate, CXCL10 300 ng/ml.
Excerpt: as §1

In assay [4] the test system is activated CD4+ T-cells. Nature of the assay: CCL5-induced chemokinesis of activated CD4+ T-cells. Conditions: 10 mM; CCL5 50 ng/ml.
Excerpt: as §1

For a further assay, the system named is CD8+ cytotoxic T-cells. As to the kind of experiment: CTL cytotoxicity assay with allogeneic endothelial cells. Conditions: 10 mM. How it is done:
CTL differentiation and activity assay: Isolated CD8+ T-cells (balb/c) were incubated with CD3-depleted and mytomycin-C-eradicated allogeneic splenocytes (C57BL/6). […] Dead cells were counted using trypan blue exclusion assay 2, 4, 6 and 18 hours after the start of the assay.

For `CC(O)C(=O)O` (stereo not shown) [lactic-acid], in the assay with activated CD8+ T-cells [1], the “glucose uptake and flux through glycolysis in CD8+ T-cells” value is on record as “vice versa”. The “CXCL10-induced chemokinesis of activated CD8+ T-cells” value in the assay on activated CD8+ T-cells [2] (10 mM lactic acid or sodium lactate, CXCL10 300 ng/ml) is recorded as “inhibited”. The “chemokinesis of CD8+ T-cells, culture media buffered to neutral pH” value with activated CD8+ T-cells [2] (lactic-acid with bicarbonate or HEPES to reach a neutral pH) was “still impaired”. Besides, the “CXCL10-induced chemokinesis of activated CD4+ T-cells” value with activated CD4+ T-cells [3] is “not vice versa”; in the assay with activated CD4+ T-cells [3] (listed as lactic acid), “not affected”. Further, in the assay with activated CD4+ T-cells [4], the “CCL5-induced migration of CD4+ T-cells” value is on record as “not”. The “cytolytic activity of CTLs” value in the assay on CD8+ cytotoxic T-cells is “inhibited”.
